Measurements: patent US12466792B2 (priority 2021, dated 2025)

Tests used:
[1] = molecular target: SARS-COV-2 3CLpro (Severe acute respiratory syndrome coronavirus 2, UniProt P0DTD1); assay: biochemical
[2] = tested on: SARS-COV-2; assay: microbe, parasite or virus in culture; type: cell-based; details: Severe acute respiratory syndrome coronavirus 2, 72 h, read-out: ID50 (Antiviral Data)

Structure (SMILES)	IC50 [1] [nM]	IC50 [2] [nM]
COc1cccc2[nH]c(C(=O)N[C@@H](CC(C)C)C(=O)N[C@H](C#N)C[C@@H]3CCCNC3=O)cc12	1000 to 10000	10100 to 100000
CC(C)C[C@H](NC(=O)OCc1ccncc1)C(=O)N[C@H](C#N)C[C@@H]1CCNC1=O	0.1 to 999	> 100000
CC(C)C[C@H](NC(=O)OCc1ccncc1)C(=O)N[C@H](C#N)C[C@@H]1CCCNC1=O	0.1 to 999	> 100000
CC(C)C[C@H](NC(=O)OCc1ccccn1)C(=O)N[C@H](C#N)C[C@@H]1CCCNC1=O	0.1 to 999	> 100000
CC(C)C[C@H](NC(=O)OCc1cccnc1)C(=O)N[C@H](C#N)C[C@@H]1CCCNC1=O	0.1 to 999	> 100000
CC(C)C[C@H](NC(=O)OCc1ccccc1)C(=O)N[C@H](C#N)C[C@@H]1CCCNC1=O	0.1 to 999	1000 to 10000
COc1cccc2[nH]c(C(=O)N(C)[C@@H](CC(C)C)C(=O)N[C@H](C#N)C[C@@H]3CCNC3=O)cc12	0.1 to 999	> 100000
C=CCN(C(=O)c1cc2c(OC)cccc2[nH]1)[C@@H](CC(C)C)C(=O)N[C@H](C#N)C[C@@H]1CCNC1=O	0.1 to 999	> 100000
CC(C)C[C@@H](C(=O)N[C@H](C#N)C[C@@H]1CCNC1=O)N(C)C(=O)[C@@H](NC(=O)C(F)(F)F)C(C)(C)C	0.1 to 999	10100 to 100000
CC(C)C[C@@H](C(=O)N[C@H](C#N)C[C@@H]1CCNC1=O)N(C)C(=O)[C@@H](NC(=O)C(F)(F)F)C(C)C	1000 to 10000	10100 to 100000
